Reference: patent US6284785A, “1-arenesulfonyl-2-aryl-pyrrolidine and pyridine derivatives” (Hoffmann- La Roche Inc., priority 1999, dated 2001)

Molecular target: T1, rat mGlu 1a receptor (Rattus norvegicus, UniProt P23385)
T1 construct: expressed in transfected cells; host or cells: EBNA cells (transient transfection)
Experiment: [Ca2+]i measurements (FLIPR, Fluo-3 AM) on mGlu 1a transfected EBNA cells; agonist or antagonist (against 10 μM glutamate)
Type: cell-based
Details: for Remarks (agonist / antagonist): table of substituents of the Examples, column Remarks
Description: cDNA encoding rat mGlu 1a receptor obtained from Prof. Nakanishi (Kyoto, Japan) was transiently tranfected into EBNA cells using a procedure described by Schlaeger et. al, New Dev. New Appl. Anim Cell Techn., Proc. ESACT Meet., 15th (1998), 105-112 and 117-120. [Ca^2+ ]i measurements were performed on mGlu 1a transfected EBNA cells after incubation of the cells with Fluo-3 AM (0.5 μM final concentration) for 1hour at 37° C. followed by 4 washes with assay buffer (DMEM supplemented with Hank's salt and 20 mM HEPES. [Ca^2+ ]i measurements were done using a fluorometric imaging plate reader (FLIPR, Molecular Devices Corporation, La Jolla, Calif. USA). When compounds were evaluated as antagonists they were tested against 10 μM glutamate as agonist.
The inhibition (antagonists) or activation (agonists) curves were fitted with a four parameter logistic equation giving EC50, IC50, and Hill coefficient using the iterative non linear curve fitting software Origin (Microcal Software Inc., Northampton, Mass., USA).

T1 sequence (P23385 19-1199): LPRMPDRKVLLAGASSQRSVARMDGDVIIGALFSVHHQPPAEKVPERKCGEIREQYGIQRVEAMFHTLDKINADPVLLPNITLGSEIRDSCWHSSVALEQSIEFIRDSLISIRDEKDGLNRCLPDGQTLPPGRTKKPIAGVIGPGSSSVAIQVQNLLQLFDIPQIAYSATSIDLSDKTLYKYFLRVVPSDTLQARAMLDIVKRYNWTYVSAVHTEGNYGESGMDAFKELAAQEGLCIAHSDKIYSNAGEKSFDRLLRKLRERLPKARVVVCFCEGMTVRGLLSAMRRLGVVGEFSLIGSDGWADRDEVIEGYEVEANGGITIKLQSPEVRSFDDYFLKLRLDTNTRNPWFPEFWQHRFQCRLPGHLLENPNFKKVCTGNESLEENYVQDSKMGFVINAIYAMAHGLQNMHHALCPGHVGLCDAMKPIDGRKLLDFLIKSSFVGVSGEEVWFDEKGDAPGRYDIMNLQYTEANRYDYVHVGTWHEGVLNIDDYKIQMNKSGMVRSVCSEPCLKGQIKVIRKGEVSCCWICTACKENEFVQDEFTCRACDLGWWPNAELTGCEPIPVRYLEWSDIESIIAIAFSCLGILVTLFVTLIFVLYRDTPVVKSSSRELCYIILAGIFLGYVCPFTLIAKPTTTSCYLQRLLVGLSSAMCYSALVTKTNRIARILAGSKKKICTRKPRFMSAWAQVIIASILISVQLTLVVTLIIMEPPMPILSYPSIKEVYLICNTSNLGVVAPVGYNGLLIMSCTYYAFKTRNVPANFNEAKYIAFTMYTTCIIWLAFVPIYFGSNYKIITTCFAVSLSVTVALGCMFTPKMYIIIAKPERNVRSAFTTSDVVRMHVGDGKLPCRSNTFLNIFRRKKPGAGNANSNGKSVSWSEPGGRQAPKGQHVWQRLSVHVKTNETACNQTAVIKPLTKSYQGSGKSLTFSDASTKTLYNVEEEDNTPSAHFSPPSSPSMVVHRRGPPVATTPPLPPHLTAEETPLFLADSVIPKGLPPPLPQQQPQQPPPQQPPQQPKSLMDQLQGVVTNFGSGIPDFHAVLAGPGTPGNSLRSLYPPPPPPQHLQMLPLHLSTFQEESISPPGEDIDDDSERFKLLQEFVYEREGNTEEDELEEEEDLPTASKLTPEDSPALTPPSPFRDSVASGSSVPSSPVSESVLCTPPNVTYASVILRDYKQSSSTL

Compound | Remarks (agonist / antagonist) | further results
N#Cc1ccc(S(=O)(=O)N2CCCC2c2ccc(F)cc2)cc1 (racemic) [Example 33, (RS)-2-(4-Fluoro-phenyl)-1-(4-cyano-benzenesulfonyl)-pyrrolidine] | Antagonist | 
COc1cccc(C2CCCN2S(=O)(=O)c2ccc(Cl)cc2)c1 (racemic) [Example 34, (RS)-1-(4-Chloro-benzenesulfonyl)-2-(3-methoxy-phenyl)-pyrrolidine] | Antagonist | 
O=S(=O)(c1ccc(F)cc1)N1CCCC1c1cccs1 (racemic) [Example 35, (RS)-1-(4-Fluoro-benzenesulfonyl)-2-thien-2-yl-pyrrolidine] | Antagonist | 
O=S(=O)(c1ccc(Cl)cc1)N1CCCC1c1cccs1 (racemic) [Example 36, (RS)-1-(4-Chloro-benzenesulfonyl)-2-thien-2-yl-pyrrolidine] | Antagonist | agonist/antagonist (activity-data table): antagonist; IC50 (antagonist, tested against 10 μM glutamate as agonist, read-out: IC50 (compounds marked antagonist)): 560 nM
Cc1ccc(S(=O)(=O)N2CCCC2c2cccs2)cc1 (racemic) [Example 37, (RS)-2-Thien-2-yl-1-(toluene-4-sulfonyl)-pyrrolidine] | Antagonist | 
Cc1ccc(S(=O)(=O)N2CCCC2c2ccc(F)c(F)c2)cc1 (racemic) [Example 38, (RS)-2-(3,4-Difluoro-phenyl)-1-(toluene-4-sulfonyl)-pyrrolidine] | Agonist | agonistic / antagonistic activity to the mGlu receptor: agonistic activty
O=S(=O)(c1ccc(Cl)cc1)N1CCCC1c1ccc(F)c(F)c1 (racemic) [Example 39, (RS)-1-(4-Chloro-benzenesulfonyl)-2-(3,4-difluoro-phenyl)-pyrrolidine] | Agonist | agonistic / antagonistic activity to the mGlu receptor: agonistic activty
CN(C)c1ccc(C2CCCN2S(=O)(=O)c2ccc(Cl)cc2)cc1F (racemic) [Example 40, (RS)-1-(4-Chloro-benzenesulfonyl)-2-(4-dimethylamino-3-fluoro-phenyl)-pyrrolidine] | Agonist | agonistic / antagonistic activity to the mGlu receptor: agonistic activty
Cc1ccc(S(=O)(=O)N2CCCC2c2ccc(N(C)C)c(F)c2)cc1 (racemic) [Example 41, (RS)-1-(p-Toluenesulfonyl)-2-(4-dimethylamino-3-fluoro-phenyl)-pyrrolidine] | Antagonist | 
Cc1ccc(S(=O)(=O)N2CCCC2c2ccc(F)c(Cl)c2)cc1 (racemic) [Example 42, (RS)-2-(3-Chloro-4-fluoro-phenyl)-1-(toluene-4-sulfonyl)-pyrrolidine] | Agonist | 
O=S(=O)(c1ccc(Cl)cc1)N1CCCC1c1ccc(F)c(Cl)c1 (racemic) [Example 43, (RS)-1-(4-Chloro-benzenesulfonyl)-2-(3-chloro-4-fluoro-phenyl)-pyrrolidine] | Antagonist | 
O=S(=O)(c1ccc(F)cc1)N1CCCC1c1ccc(F)c(Cl)c1 (racemic) [Example 44, (RS)-2-(3-Chloro-4-fluoro-phenyl)-1-(4-fluoro-benzenesulfonyl)-pyrrolidine] | Antagonist | 
CN(C)c1ccc(C2CCCN2S(=O)(=O)c2ccc(Cl)cc2)cc1Cl (racemic) [Example 45, (RS)-1-(4-Chloro-benzenesulfonyl)-2-(4-dimethylamino-3-chloro-phenyl)-pyrrolidine] | Antagonist | 
CN(C)c1ccc(C2CCCN2S(=O)(=O)c2ccc(F)cc2)cc1Cl (racemic) [Example 46, (RS)-1-(4-fluoro-benzenesulfonyl)-2-(4-diimethylamino-3-chloro-phenyl)-pyrrolidine] | Antagonist | 
Cc1ccc(S(=O)(=O)N2CCCC2c2ccc(Cl)c(Cl)c2)cc1 (racemic) [Example 47, (RS)-2-(3,4-Dichloro-phenyl)-1-(toluene-4-sufonyl)-pyrrolidine] | Antagonist | 
Cc1ccc(S(=O)(=O)N2CCCC2c2ccc(C(F)(F)F)cc2)cc1 (racemic) [Example 48, (RS)-1-(Toluene-4-sulfonyl)-2-(4-trifluoromethyl-phenyl)-pyrrolidine] | Agonist | agonistic / antagonistic activity to the mGlu receptor: agonistic activty
O=S(=O)(c1ccc(F)cc1)N1CCCC1c1ccc(C(F)(F)F)cc1 (racemic) [Example 50, (RS)-1-(4-Floro-benzenesulfonyl)-2-(4-trifluoromethyl-phenyl)-pyrrolidine] | Antagonist | 
Cc1ccc(S(=O)(=O)N2CCCC2c2ccccc2Cl)cc1 (racemic) [Example 51, (RS)-2-(2-Chloro-phenyl)-1-(toluene-4-sulfonyl)-pyrrolidine] | Antagonist | 

Compound | Remarks (agonist / antagonist) | further results
Cc1ccc(S(=O)(=O)N2CCCC2c2ccsc2)cc1 (racemic) [Example 55, (RS)-2-Thien-3-yl-1-(toluene-4-sulfonyl)-pyrrolidine] | Agonist | agonistic / antagonistic activity to the mGlu receptor: agonistic activty
O=S(=O)(c1ccc(Cl)cc1)N1CCCC1c1ccsc1 (racemic) [Example 56, (RS)-1-(4-Chloro-benzenesulfonyl)-2-thien-3-yl-pyrrolidine] | Agonist | agonistic / antagonistic activity to the mGlu receptor: agonistic activty
Cc1ccc(S(=O)(=O)N2CCCC2c2ccc(Cl)c(C)c2)cc1 (racemic) [Example 58, (RS)-2-(4-Chloro-3-methyl-phenyl)-1-(toluene-4-sulfonyl)-pyrrolidine] | Agonist | agonistic / antagonistic activity to the mGlu receptor: agonistic activty
CCCc1ccc(S(=O)(=O)N2CCCC2c2ccc(F)cc2)cc1 (racemic) [Example 59, (RS)-2-(4-Fluoro-phenyl)-1-(4-propyl-benzenesulfonyl)-pyrrolidine] | Antagonist | 
O=S(=O)(c1ccc(C(F)(F)F)cc1)N1CCCC1c1ccc(F)cc1 (racemic) [Example 60, (RS)-2-(4-Fluoro-phenyl)-1-(4-trifluoromethyl-benzenesulfonyl)-pyrrolidine] | Agonist | agonistic / antagonistic activity to the mGlu receptor: agonistic activty
Cc1cc(C)c(S(=O)(=O)N2CCCC2c2ccc(F)cc2)c(C)c1 (racemic) [Example 61, (RS)-2-(4-Fluoro-phenyl)-1-(2,4,6-trimethyl-benzenesulfonyl)-pyrrolidine] | Antagonist | 
Cc1ccc(S(=O)(=O)N2CCCC2c2ccc(F)cc2)cc1Cl (racemic) [Example 62, (RS)-1-(3-Chloro-4-methyl-benzenesulfonyl)-2-(4-fluoro-phenyl)-pyrrolidine] | Antagonist | 
O=S(=O)(c1ccccc1F)N1CCCC1c1ccc(F)cc1 (racemic) [Example 63, (RS)-1-(2-Fluoro-benzenesulfonyl)-2-(4-fluoro-phenyl)-pyrrolidine] | Antagonist | 
O=S(=O)(c1cccc(F)c1)N1CCCC1c1ccc(F)cc1 (racemic) [Example 64, (RS)-1-(3-Fluoro-benzenesulfonyl)-2-(4-fluoro-phenyl)-pyrrolidine] | Antagonist | 
N#Cc1ccccc1S(=O)(=O)N1CCCC1c1ccc(F)cc1 (racemic) [Example 65, (RS)-1-(2-Cyano-benzenesulfonyl)-2-(4-fluoro-phenyl)-pyrrolidine] | Antagonist | 
O=S(=O)(c1ccc2ccccc2c1)N1CCCC1c1ccc(F)cc1 (racemic) [Example 66, (RS)-2-(4-Fluoro-phenyl)-1-(naphthalene-2-sulfonyl)-pyrrolidine] | Antagonist | 
Cc1ccc(S(=O)(=O)N2CCCC2c2ccc(C)cc2C)cc1 (racemic) [Example 67, (RS)-2-(2,4-Dimethyl-phenyl)-1-(toluene-4-sulfonyl)-pyrrolidine] | Antagonist | 
Cc1ccc(C2CCCN2S(=O)(=O)c2ccc(F)cc2)c(C)c1 (racemic) [Example 68, (RS)-2-(2,4-Dimethyl-phenyl)-1-(4-fluoro-benzenesulfonyl)-pyrrolidine] | Antagonist | 
Cc1ccc(S(=O)(=O)N2CCCC2c2ccco2)cc1 (racemic) [Example 69, (RS)-2-Furan-2-yl-1-(toluene-4-sulfonyl)-pyrrolidine] | Agonist | agonistic / antagonistic activity to the mGlu receptor: agonistic activty
O=S(=O)(c1ccc(F)cc1)N1CCCC1c1ccco1 (racemic) [Example 70, (RS)-1-(4-Fluoro-benzenesulfonyl)-2-furan-2-yl-pyrrolidine] | Antagonist | 
O=S(=O)(c1ccc(Cl)cc1)N1CCCC1c1ccco1 (racemic) [Example 71, (RS)-1-(4-Chloro-benzenesulfonyl)-2-furan-2-yl-pyrrolidine] | Antagonist | 
Cc1ccc(S(=O)(=O)N2CCCC2c2ccc(N(C)C)cc2)cc1 (racemic) [Example 72, (RS)-2-(4-N,N-Dimethylamino-phenyl)-1-(toluene-4-sulfonyl)-pyrrolidine] | Agonist | agonistic / antagonistic activity to the mGlu receptor: agonistic activty
CN(C)c1ccc(C2CCCN2S(=O)(=O)c2ccc(F)cc2)cc1 (racemic) [Example 73, (RS)-2-(4-N,N-Dimethylamino-phenyl)-1-(4-fluoro-benzenesulfonyl)-pyrrolidine] | Antagonist | 
